Data reported in PubChem BioAssay (NCI).
Several values for one entry are separate records, joined by “and”; a condition that tells them apart may be missing. Identical values can stand only once.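 How tested: cells in 96-well plates exposed to compound for 48 hours at five concentrations. The concentration for 50% growth inhibition is given as GI50. TGI is the concentration that stops growth completely.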

Legend:
Assay in all cases: NCI anticancer screen, dose series, 48 h
PC-3 prostate = system: PC-3 prostate
EKVX NSCLC = system: EKVX NSCLC
SN12C renal = system: SN12C renal
MCF7 breast = system: MCF7 breast
A549 NSCLC = system: A549 NSCLC
TK-10 renal = system: TK-10 renal
OVCAR-4 ovarian = system: OVCAR-4 ovarian
HCC-2998 colon = system: HCC-2998 colon
SNB-75 CNS = system: SNB-75 CNS
MALME-3M melanoma = system: MALME-3M melanoma

Row | SMILES | GI50 (PC-3 prostate) | TGI (PC-3 prostate) | GI50 (EKVX NSCLC) | TGI (EKVX NSCLC) | GI50 (SN12C renal) | TGI (SN12C renal) | GI50 (MCF7 breast) | TGI (MCF7 breast) | GI50 (A549 NSCLC) | TGI (A549 NSCLC) | GI50 (TK-10 renal) | TGI (TK-10 renal) | GI50 (OVCAR-4 ovarian) | TGI (OVCAR-4 ovarian) | TGI (HCC-2998 colon) | TGI (SNB-75 CNS) | TGI (MALME-3M melanoma) | GI50 (HCC-2998 colon) | GI50 (SNB-75 CNS) | GI50 (MALME-3M melanoma)
1 | COc1ccc(C2NC(=S)NC3=C2COc2ccc(F)cc23)cc1OC (centres undefined) | 14.2 µM | 87.9 µM | 29.8 µM | > 100 µM | 15.1 µM | 50.1 µM | 31.2 µM | > 100 µM | 10.9 µM | 36.7 µM | 31.2 µM | > 100 µM | 23 µM | > 100 µM | – | – | – | – | – | –
2 | OCCN(CCO)c1ncnc2c1sc(=S)n2-c1ccccc1 | – | – | – | > 100 µM | – | > 100 µM | – | – | – | > 100 µM | – | > 100 µM | – | > 100 µM | > 100 µM | > 100 µM | > 100 µM | – | – | –
3 | C(/C=C/N1CCCC1)=C\c1nc(N2CCCC2)c2ccccc2n1 | – | – | – | 37.9 µM | – | 29 µM | – | – | – | > 100 µM | – | > 100 µM | – | 27.8 µM | 31.3 µM | 31.6 µM | 33 µM | – | – | –
4 | COC(=O)Cc1cc(=O)oc2c1C(=O)CCC2 | – | – | – | > 100 µM | – | > 100 µM | – | – | – | > 100 µM | – | > 100 µM | – | > 100 µM | > 100 µM | > 100 µM | > 100 µM | – | – | –
5 | CCOC(=O)/N=c1\ssc(Cl)c1Cl | 15.8 µM | 36 µM | 19.9 µM | 42.7 µM | 6.7 µM | 25.8 µM | 3.54 µM | 16.8 µM | 24.1 µM | 73.8 µM | 4.72 µM | 18.5 µM | 35.5 µM | > 100 µM | 5.39 µM | 87.7 µM | – | 2.83 µM | 30.6 µM | –
6 | O=C1[C@H]2ON(c3ccccc3)C(c3cccc([N+](=O)[O-])c3)[C@H]2C(=O)N1c1ccc(Cc2ccc(N3C(=O)[C@@H]4ON(c5ccccc5)C(c5cccc([N+](=O)[O-])c5)[C@@H]4C3=O)cc2)cc1 (some centres undefined) | – | – | – | > 100 µM | – | > 100 µM | – | – | – | > 100 µM | – | > 100 µM | – | > 100 µM | > 100 µM | > 100 µM | > 100 µM | – | – | –
7 | COc1cc2c3c(c1OC)/C(=N/OS(=O)(=O)c1ccc(C)cc1)CC3N(S(=O)(=O)c1ccc(C)cc1)CC2 (centres undefined) | – | – | – | > 100 µM | – | > 100 µM | – | – | – | > 100 µM | – | > 100 µM | – | > 100 µM | > 100 µM | > 100 µM | > 100 µM | – | – | –
8 | CCOc1ccccc1NC(=O)CCC(=O)NN | – | – | – | – | – | > 100 µM | – | – | – | > 100 µM | – | > 100 µM | – | > 100 µM | > 100 µM | > 100 µM | > 100 µM | – | – | –
9 | COC(=O)C1=C(C(=O)OC)N(C(C)C)[C@H]2C(C(=O)OC)=C(C(=O)OC)N(C(C)C)[C@@H]12 | – | – | – | > 100 µM | – | > 100 µM | – | – | – | > 100 µM | – | > 100 µM | – | > 100 µM | – | > 100 µM | > 100 µM | – | – | –
10 | O=c1c2ccccc2c(=O)c2c1sc1c(=O)c3ccc(O)cc3c(=O)c12 | – | – | 1.34 µM | 3.66 µM | 0.187 µM | 0.36 µM | – | – | 0.222 µM | 0.497 µM | 2.24 µM | 3.97 µM | 0.88 µM | 2.1 µM | – | 0.4 µM | 0.318 µM | – | 0.183 µM | 0.152 µM
11 | O=C1OC(c2ccc(Cl)c3ccccc23)c2ccccc21 (centres undefined) | – | – | – | > 100 µM | – | > 100 µM | – | – | – | > 100 µM | – | – | – | > 100 µM | > 100 µM | 51.1 µM | > 100 µM | – | – | –
12 | COc1cc2c(c(OC)c1OC)-c1ccc(SC)c(=O)cc1[C@@H](NC(=O)c1ccc(F)cc1)CC2 | – | – | < 0.01 µM | > 100 µM | < 0.01 µM | 46.8 µM | – | – | 0.0489 µM and < 0.01 µM | > 100 µM | < 0.01 µM | 35.5 µM | – | 91.1 µM | 0.0572 µM and < 0.01 µM | < 0.01 µM | 91.1 µM | < 0.01 µM | < 0.01 µM | < 0.01 µM
13 | C/C(N=NC(=S)N1CCCCCC1)=C1\C=CC=CN1O | – | – | – | > 94.4 µM | – | > 100 µM | – | > 100 µM | – | > 92.3 µM | – | > 100 µM | – | > 100 µM | > 100 µM | 72.7 µM | 36.4 µM | – | – | –
14 | CCOC(=O)c1cc(C(=O)O)c(=O)n2c1[nH]c1ccccc12 | – | – | – | > 100 µM | – | > 100 µM | – | – | – | > 100 µM | – | > 100 µM | – | > 100 µM | > 100 µM | > 100 µM | > 100 µM | – | – | –
15 | CCCC/C=C1\CCC(CN2CCCC2)C1=O (centres undefined) | – | – | – | – | – | 32 µM | – | – | – | 40.3 µM | – | 6.3 µM | – | – | 33.7 µM | 32.4 µM | 33.1 µM | – | – | –
16 | N#Cc1c(-c2ccc(Cl)cc2)csc1NC(=O)Nc1cccc(C(F)(F)F)c1 | 2.43 µM | 11.5 µM | 1.97 µM | 9.75 µM | 2.93 µM | 10.7 µM | 3.04 µM | 9.97 µM | 2.57 µM | 11.4 µM | 2.23 µM | 8.95 µM | 3.2 µM | 14.4 µM | 7.97 µM | 12.7 µM | – | 2.75 µM | 2.01 µM | –
17 | O=C(NOC(=O)c1ccc([N+](=O)[O-])cc1)c1ccc(Cl)cc1 | – | – | – | > 100 µM | – | > 100 µM | – | – | – | > 100 µM | – | – | – | > 100 µM | > 100 µM | 54.6 µM | > 100 µM | – | – | –
18 | COc1ccc(C(=O)/C=C/c2ccc(OCCCCCCCCCCOc3ccc(/C=C/C(=O)c4ccc(OC)c(OC)c4)cc3)cc2)c(OC)c1 | – | > 100 µM | – | > 100 µM | – | > 100 µM | – | > 100 µM | – | > 100 µM | – | > 100 µM | – | > 100 µM | > 100 µM | > 100 µM | – | – | – | –
19 | C=C1c2ccccc2N(S(=O)(=O)c2ccc(C)cc2)C12CCCCC2 | – | – | – | > 100 µM | – | > 100 µM | – | – | – | > 100 µM | – | > 100 µM | – | > 100 µM | > 100 µM | > 100 µM | > 100 µM | – | – | –
20 | Cc1ccc(-c2cc(C(Cl)Cl)on2)cc1 | 49.9 µM | > 100 µM | 46.1 µM | > 100 µM | > 100 µM | > 100 µM | 97.6 µM | > 100 µM | 65.6 µM | > 100 µM | 54.9 µM | > 100 µM | 77.6 µM | > 100 µM | – | – | > 100 µM | – | – | > 100 µM
21 | O=C(O)C(CS)N=Cc1nc(-c2ccccc2)oc1O (centres undefined) | – | – | – | > 100 µM | – | > 100 µM | – | – | – | > 100 µM | – | > 100 µM | – | > 100 µM | > 100 µM | > 100 µM | > 100 µM | – | – | –
22 | Cc1nnc(N=Nc2c(O)[nH]c3ccccc23)[nH]c1=O | – | > 100 µM | – | > 100 µM | – | > 100 µM | – | > 100 µM | – | > 100 µM | – | > 100 µM | – | > 100 µM | – | – | > 100 µM | – | – | –
